Test results: patent US6964975B2, “Isoxazole and thiazole compounds and use thereof as medicine” (Kirin Beer Kabushiki Kaisha, priority 2000, dated 2005)
pIC50: −log10 of the molar value.

Target: T1, human EDG-2 (Homo sapiens, UniProt Q92633)
T1 construct: cDNA of the cloned human EDG-2 was introduced into pEFneo, which is an animal expression vector; expressed in transfected cells; host or cells: HepG2
Test: Inhibitory activity on LPA-induced elevation of intracellular Ca2+ level
Format: cell-based
Conditions: 50% inhibition of elevation of intracellular Ca2+ level by LPA, human EDG-2/HepG2 cells, fura-2
Description: The human EDG-2 expression plasmid was introduced into HepG2 cells by electroporation. After the introduction, culturing was continued while exchanging selective media every 3 to 4 days, thereby obtaining an expressed colony. Regarding these cells, Ca-influx and cell-proliferation by LPA, level of [^3H] LPA binding and the like were inspected to select a cell line which highly expresses human EDG-2 (human EDG-2/HepG2).
Human EDG-2/HepG2 cells were washed and then suspended in 0.1% BSA (bovine serum albumin)-containing HEPES buffer. A fluorescent indicator, fura-2/AM (Wako Pure Chemical Industries, Ltd.), was added, and the mixture was shaken at room temperature for 45 minutes so that the indicator is included in the cell. Cells were washed again and then suspended in 0.1% BSA-containing HEPES buffer, and intracellular Ca^2+ level was assayed using FDSS2000 (Hamamatsu Photonics). […] Each test compound was added to the cell suspension followed by the addition of LPA, thereby examining the inhibitory activity of the test compound on the function of LPA for elevating the intracellular Ca level. […] The lower the IC50 value, the higher the antagonistic activity on the LPA receptor.

T1 sequence (Q92633 whole entry): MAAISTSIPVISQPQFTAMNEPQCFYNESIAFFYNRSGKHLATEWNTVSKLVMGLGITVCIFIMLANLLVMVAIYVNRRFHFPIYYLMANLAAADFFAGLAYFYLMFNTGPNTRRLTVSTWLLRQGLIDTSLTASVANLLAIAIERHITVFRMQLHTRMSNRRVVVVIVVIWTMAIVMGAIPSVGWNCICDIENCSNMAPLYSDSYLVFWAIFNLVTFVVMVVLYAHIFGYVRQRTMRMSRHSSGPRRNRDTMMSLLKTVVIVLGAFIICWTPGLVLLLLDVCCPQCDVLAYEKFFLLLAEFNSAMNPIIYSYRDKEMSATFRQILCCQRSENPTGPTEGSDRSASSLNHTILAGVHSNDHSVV

SMILES	pIC50
Cc1ccccc1C(C)OC(=O)Nc1c(-c2ccccc2)noc1C (centres unmarked) [Compound 14, 1-(2-Methylphenyl)ethyl N-(5-methyl-3-phenyl-4-isoxazolyl)carbamate]	4.00 to 4.52
Cc1noc(-c2ccc(CN3CCOCC3)cc2)c1NC(=O)OC(C)c1ccccc1Cl (centres unmarked) [Compound 88, 1-(2-Chlorophenyl)ethyl N-[3-methyl-5-[4-(morpholinomethyl)phenyl]-4-isoxazolyl]carbamate]	5.00 to 5.52
COCc1noc(-c2ccccc2)c1NC(=O)OC(C)c1ccccc1Cl (centres unmarked) [Compound 78, 1-(2-Chlorophenyl)ethyl N-[3-(methoxymethyl)-5-phenyl-4-isoxazolyl]carbamate]	4.52
Cc1noc(-c2cccc(F)c2)c1NC(=O)OC(C)c1ccccc1F (centres unmarked) [Compound 34, 1-(2-Fluorophenyl)ethyl N-[5-(3-fluorophenyl)-3-methyl-4-isoxazolyl]carbamate]	5.00
CCCCc1ccc(-c2onc(C)c2NC(=O)OC(C)c2ccccc2Cl)cc1 (centres unmarked) [Compound 65, 1-(2-Chlorophenyl)ethyl N-[5-(4-butylphenyl)-3-methyl-4-isoxazolyl]carbamate]	4.52 to 5.00
CCCCc1ccc(-c2onc(C)c2NC(=O)OC(C)c2ccccc2)cc1 (centres unmarked) [Compound 64, 1-Phenylethyl N-[5-(4-butylphenyl)-3-methyl-4-isoxazolyl]carbamate]	4.52 to 5.00
Cc1noc(-c2ccccc2)c1NC(=O)O[C@H](C)c1ccccc1Cl [Compound 18, (1R)-1-(2-Chlorophenyl)ethyl N-(3-methyl-5-phenyl-4-isoxazolyl)carbamate]	5.52
CCCCC(C)OC(=O)Nc1c(-c2ccccc2)noc1C (centres unmarked) [Compound 101, 1-Methylpentyl N-(5-methyl-3-phenyl-4-isoxazolyl)carbamate]	4.00 to 4.52
Cc1noc(-c2c(-c3ccccc3)noc2C)c1NC(=O)OC(C)c1ccccc1Cl (centres unmarked) [Compound 72, 1-(2-Chlorophenyl)ethyl N-[5-(3-phenyl-5-methyl-4-isoxazolyl)-3-methyl-4-isoxazolyl]carbamate]	4.52 to 5.00
COc1ccc(-c2onc(C)c2NC(=O)OC(C)c2ccccc2Cl)cc1 (centres unmarked) [Compound 50, 1-(2-Chlorophenyl)ethyl N-[5-(4-methoxyphenyl)-3-methyl-4-isoxazolyl]carbamate]	4.52 to 5.00
Cc1noc(-c2ccc([N+](=O)[O-])cc2)c1NC(=O)OC(C)c1ccccc1 (centres unmarked) [Compound 54, 1-Phenylethyl N-[3-methyl-5-(4-nitrophenyl)-4-isoxazolyl]carbamate]	4.52 to 5.00
Cc1noc(-c2cccc(CCl)c2)c1NC(=O)OC(C)c1ccccc1Cl (centres unmarked) [Compound 70, 1-(2-Chlorophenyl)ethyl N-[5-[3-(chloromethyl)phenyl]-3-methyl-4-isoxazolyl]carbamate]	5.52 to 6.00
Cc1onc(-c2ccccc2)c1NC(=O)OC1CCc2ccccc2C1 (centres unmarked) [Compound 98, 1,2,3,4-Tetrahydro-2-naphthalenyl N-(5-methyl-3-phenyl-4-isoxazolyl)carbamate]	4.00 to 4.52
Cc1noc(-c2ccccc2F)c1NC(=O)OC(C)c1ccccc1Cl (centres unmarked) [Compound 43, 1-(2-Chlorophenyl)ethyl N-[5-(2-fluorophenyl)-3-methyl-4-isoxazolyl]carbamate]	5.00 to 5.52
Cc1noc(-c2ccc(OC(F)(F)F)cc2)c1NC(=O)OC(C)c1ccccc1 (centres unmarked) [Compound 35, 1-Phenylethyl N-[5-[4-(trifluoromethoxy)phenyl]-3-methyl-4-isoxazolyl]carbamate]	5.00 to 5.52
Cc1onc(-c2ccccc2)c1NC(=O)O[C@H](C)c1ccccc1 [Compound 9, (1R)-1-Phenylethyl N-(5-methyl-3-phenyl-4-isoxazolyl)carbamate]	4.52 to 5.00

SMILES	pIC50
COCc1ccc(-c2onc(C)c2NC(=O)OC(C)c2ccccc2Cl)cc1 (centres unmarked) [Compound 87, 1-(2-Chlorophenyl)ethyl N-[5-[4-(methoxymethyl)phenyl]-3-methyl-4-isoxazolyl]carbamate]	5.52
CCc1noc(-c2ccc(CCl)cc2)c1NC(=O)OC(C)c1ccccc1F (centres unmarked) [Compound 160, 1-(2-Fluorophenyl)ethyl N-{5-[4-(chloromethyl)phenyl]-3-ethyl-4-isoxazolyl}carbamate]	5.00 to 5.52
CC(OC(=O)Nc1c(Cl)nsc1-c1ccccc1Cl)c1ccccc1 (centres unmarked) [Compound 25, 1-Phenylethyl N-[3-chloro-5-(2-chlorophenyl)-4-isothiazolyl]carbamate]	4.00 to 4.52
Cc1onc(-c2ccccc2)c1NC(=O)OC(c1ccccc1)C(F)(F)F (centres unmarked) [Compound 80, 2,2,2-Trifluoro-1-phenylethyl N-(5-methyl-3-phenyl-4-isoxazolyl)carbamate]	5.52 to 6.00
Cc1onc(-c2ccc([N+](=O)[O-])cc2)c1NC(=O)OC(C)c1ccccc1Cl (centres unmarked) [Compound 6, 1-(2-Chlorophenyl)ethyl N-[5-methyl-3-(4-nitrophenyl)-4-isoxazolyl]carbamate]	5.00
Cc1ccc(-c2noc(C)c2NC(=O)OC(C)c2ccccc2Cl)cc1 (centres unmarked) [Compound 5, 1-(2-Chlorophenyl)ethyl N-[5-methyl-3-(4-methylphenyl)-4-isoxazolyl]carbamate]	4.52 to 5.00
C=CC(OC(=O)Nc1c(-c2ccccc2)noc1C)c1ccccc1 (centres unmarked) [Compound 81, 1-Phenylallyl N-(5-methyl-3-phenyl-4-isoxazolyl)carbamate]	4.00 to 4.52
Cc1noc(-c2ccc(F)cc2F)c1NC(=O)OC(C)c1ccccc1Cl (centres unmarked) [Compound 60, 1-(2-Chlorophenyl)ethyl N-[5-(2,4-difluorophenyl)-3-methyl-4-isoxazolyl]carbamate]	5.52 to 6.00
Cc1cccc(-c2onc(C)c2NC(=O)OC(C)c2ccccc2)c1 (centres unmarked) [Compound 27, 1-Phenylethyl N-[3-methyl-5-(3-methylphenyl)-4-isoxazolyl]carbamate]	4.52
Cc1noc(-c2ccco2)c1NC(=O)OC(C)c1ccccc1 (centres unmarked) [Compound 31, 1-Phenylethyl N-[5-(2-furyl)-3-methyl-4-isoxazolyl]carbamate]	5.00
Cc1noc(-c2ccc([N+](=O)[O-])cc2)c1NC(=O)OC(C)c1ccccc1Cl (centres unmarked) [Compound 55, 1-(2-Chlorophenyl)ethyl N-[3-methyl-5-(4-nitrophenyl)-4-isoxazolyl]carbamate]	5.00 to 5.52
Cc1noc(-c2ccncc2)c1NC(=O)OC(C)c1ccccc1 (centres unmarked) [Compound 61, 1-Phenylethyl N-[3-methyl-5-(4-pyridyl)-4-isoxazolyl]carbamate]	5.00 to 5.52
Cc1noc(-c2ccc(F)cc2)c1NC(=O)OC(C)c1ccccc1Cl (centres unmarked) [Compound 41, 1-(2-Chlorophenyl)ethyl N-[5-(4-fluorophenyl)-3-methyl-4-isoxazolyl]carbamate]	5.00 to 5.52
Cc1ccc(-c2onc(C)c2NC(=O)OC(C)c2ccccc2)cc1 (centres unmarked) [Compound 37, 1-Phenylethyl N-[3-methyl-5-(4-methylphenyl)-4-isoxazolyl]carbamate]	4.52
CCc1noc(-c2ccccc2)c1NC(=O)OC(C)c1ccccc1Cl (centres unmarked) [Compound 76, 1-(2-Chlorophenyl)ethyl N-(3-ethyl-5-phenyl-4-isoxazolyl)carbamate]	5.52 to 6.00
Cc1noc(-c2ccc(CCl)cc2)c1NC(=O)OC(C)c1ccccc1Cl (centres unmarked) [Compound 74, 1-(2-Chlorophenyl)ethyl N-[5-[4-(chloromethyl)phenyl]-3-methyl-4-isoxazolyl]carbamate]	5.52 to 6.00
